Laboratory results reported in paper PMC8274595, “Mechanism through Which Retrocyclin Targets Flavivirus Multiplication” (Journal of Virology, 2021).
Where two headings read alike, the source gives them in different places. Where no end group is shown, it is not given here.

Columns and labels:
ZIKV PRVABC 59 = assay: Plaque assay, ZIKV PRVABC 59 virus production; assay type: cell-based, Zika virus (ZIKV); conditions: 100 μM, additional cell line U251 used, supernatant 47 h postinfection
ZIKV MR766 = assay: Plaque assay, ZIKV MR766 virus production; assay type: cell-based, Zika virus (ZIKV); conditions: additional cell line U251 used, supernatant 71 h postinfection
ZIKV = assay: Time-of-addition assay, ZIKV (PRVABC 59 and MR766); assay type: cell-based, Zika virus (ZIKV)
MR766 strain = assay: Time-of-addition assay, ZIKV MR766 posttreatment; assay type: cell-based, Zika virus (ZIKV); conditions: Vero cells, RC-101 40 μM added 1 h postinfection for 71 h, MOI 0.1, plaque assay
ZIKV replicon = ZIKV replicon luciferase assay; assay type: cell-based, Zika virus (ZIKV); conditions: BHK-21 cells, three independent experiments
ZIKV NS2B-NS3pro = target: T1, ZIKV NS2B-NS3pro (Zika virus, UniProt A0A024B7W1); assay: Proteolytic activity of NS2B-NS3 protease; assay type: biochemical
T1 construct: the NS2B fragments were amplified by PCR; made in house; host or cells: E. coli BL21(DE3), pET28a

JEV NS3 = assay type: cell-based, Japanese encephalitis virus (JEV); conditions: BHK-21 cells
JEV AT31 [1] = assay: Viral titer reduction (plaque) assay, JEV in BHK-21 cells; assay type: cell-based, Japanese encephalitis virus (JEV); conditions: MOI 0.1, six independent experiments
JEV AT31 [2] = assay: Viral titer reduction (plaque) assay, JEV in U251 cells; assay type: cell-based, Japanese encephalitis virus (JEV); conditions: MOI 0.1, six independent experiments
JEV = assay type: cell-based, Japanese encephalitis virus (JEV); conditions: 50 μM RC-101, coadministration, BHK-21 cells
JEV N154A variant = assay type: cell-based, Japanese encephalitis virus (JEV); conditions: coadministration, BHK-21 cells, Western blot and plaque assay
JEV H144A variant = assay type: cell-based, Japanese encephalitis virus (JEV); conditions: coadministration, BHK-21 cells, Western blot and plaque assay
JEV Q258A variant = assay type: cell-based, Japanese encephalitis virus (JEV); conditions: coadministration, BHK-21 cells, Western blot and plaque assay
WT DIII = target: T2, WT DIII (Japanese encephalitis virus, UniProt P27395); assay: Binding affinity, biolayer interferometry, WT DIII; set-up: species or system Japanese encephalitis virus (JEV); conditions: Octet QK, DIII immobilized, RC-101 200, 100, 50 nM, 1:1 binding model
T2 construct: The WT DIII expression vector was constructed using pET-22b(+) and preserved in our laboratory; pET-22b(+) normally gives a C-terminal His6); made in house; host or cells: E. coli BL21(DE3), pET-22b(+)

DE mutant DIII = target: T3, DE mutant DIII (Japanese encephalitis virus, UniProt P27395, N661A/S658A/S659A/T657A); assay: Binding affinity, biolayer interferometry, DE mutant DIII; set-up: species or system Japanese encephalitis virus (JEV); conditions: relative to WT DIII
T3 construct: DE loop mutant DIII (B), and bovine serum albumin (BSA) (C) were immobilized onto biosensors; pET-22b(+) normally gives a C-terminal His6); made in house

Vero cells = conditions: up to 100 μM, 72 h, CCK-8 assay
HIV gp120 = conditions: cited from earlier work
[3] = tested on: influenza virus hemagglutinin; conditions: cited from earlier work
[4] = tested on: herpes simplex virus 1/2 (HSV-1/2) glycoprotein; conditions: cited from earlier work
DENV NS2B-NS3 protease = conditions: cited from earlier work
DENV-2 = conditions: cited from earlier work

## CC[C@H](C)[C@@H]1NC(=O)CNC(=O)[C@H](CCCCN)NC(=O)CNC(=O)[C@@H]2CSSC[C@H](NC1=O)C(=O)N[C@@H](CCCNC(=N)N)C(=O)N[C@H]1CSSC[C@H](NC(=O)[C@H](CCCNC(=N)N)NC(=O)[C@@H]3CSSC[C@H](NC(=O)[C@H]([C@@H](C)CC)NC1=O)C(=O)NCC(=O)N[C@@H](CCCNC(=N)N)C(=O)NCC(=O)N[C@@H]([C@@H](C)CC)C(=O)N3)C(=O)N[C@@H]([C@@H](C)CC)C(=O)N2 [RC-101, retrocyclin-101]
ZIKV PRVABC 59
  virus production (plaques): few plaques were found
ZIKV MR766; 12.5 μM
  virus production reduction: approximately 1 log unit
ZIKV MR766; 100 μM
  virus production reduction: approximately 7 log units
ZIKV; IC98 from dose-response against ZIKV (Fig. 1)
  approximate IC98 against ZIKV: ~50 µM
ZIKV; Vero cells, RC-101 40 μM for 1 h before infection (-1 to 0 h), ZIKV MOI 0.1, plaque assay
  suppression of viral titers, pretreatment: no suppression of viral titers was observed
ZIKV; Vero cells, RC-101 40 μM with ZIKV MOI 0.1, 0 to 1 h, plaque assay
  inhibitory effect, coadministration: significant inhibitory effects
ZIKV; ZIKV (MOI 2.5) incubated with RC-101 40 μM at 37°C for 1 h, diluted 25-fold to infect Vero cells 1 h, plaque assay
  suppression of viral titers, virucidal treatment: no suppression of viral titers was observed
MR766 strain
  inhibition of infection, posttreatment: inhibited MR766 strain infection
ZIKV replicon; 2 h postelectroporation
  initial translation of replicon RNA (luciferase activity): little effect
ZIKV replicon; 48 h postelectroporation
  luciferase signal (replication): appreciable reduction
ZIKV NS2B-NS3pro
  IC50: 7.2 µM
JEV NS3; JEV AT31 MOI 0.1, 1 h preinfection RC-101, lysates 23 h postinfection
  expression of JEV NS3: inhibited in a dose-dependent manner
JEV NS3; JEV AT31 MOI 0.1, RC-101 3.125 μM versus 0.78125 μM, 23 h postinfection
  unprocessed polyprotein precursor (>180 kDa) expression: significantly higher
JEV NS3; JEV AT31 MOI 0.1, RC-101 0.78125 and 3.125 μM, 23 h postinfection
  unprocessed polyprotein precursor (>180 kDa) presence: present
JEV NS3; JEV AT31 MOI 0.1, RC-101 12.5 and 50 μM, 23 h postinfection
  unprocessed polyprotein precursor (>180 kDa) presence: decreased
JEV AT31 [1]
  inhibition of JEV infection (viral titer): robustly inhibited JEV infection
JEV AT31 [2]
  inhibition of JEV infection (viral titer): robustly inhibited JEV infection
JEV; MOI 0.1, 24 h postinfection
  prM band (Western blot): hardly detectable
JEV; plaque assay
  viral titers decrease: approximately 3 log units
JEV N154A variant
  inhibition of infection by mutant virus: inhibited infections
JEV H144A variant
  inhibition of infection by mutant virus: inhibited infections
JEV Q258A variant
  sensitivity of mutant virus to RC-101: likely had increased sensitivity
WT DIII
  kinetic dissociation (Kd): 0.000118 s⁻¹
DE mutant DIII
  decrease of binding affinity, DE mutant versus WT DIII: 1 order of magnitude
Vero cells
  cytotoxicity (cell viability): marginal response even at 100 μM
JEV H319A variant
  resistance of mutant virus to RC-101: resistance to RC-101 at the protein level and in the low-multiplication of infection (MOI) assay
JEV DE mutant
  resistance of mutant virus to RC-101: robust resistance to RC-101 in all assays
JEV T410A variant
  resistance of mutant virus to RC-101: robust resistance to RC-101 in all assays
HIV gp120
  binding affinity to HIV gp120: high binding affinity
[3]
  binding affinity to influenza virus hemagglutinin: high binding affinity
[4]
  binding affinity to HSV-1/2 glycoprotein: high binding affinity

## GICRCICGRGICRCICGR (also: bicyclic or more (positions not given here)) [RC-1]
DENV NS2B-NS3 protease
  inhibition of DENV NS2B-NS3 protease: reported to inhibit DENV NS2B-NS3 protease
DENV-2
  inhibition of DENV-2 replication: inhibit DENV-2 replication
